Experiment [1] concerns SW-620. Description: Antiproliferative activity tested as 50% inhibition of DNA synthesis in human SW620 colon carcinoma cell line. Format: functional, cell-based.
In experiment [2] the test system is K562. Description: Antiproliferative activity tested as 50% inhibition of DNA synthesis in human K562 erythroleukemia cell line. Format: functional, cell-based.

Structures are written as SMILES.

Take `CCOC(=O)c1csc(-c2nc3c([nH]2)C(=O)C=C(OC)C3=O)n1`: the IC50 in experiment [1] is 13.1 µM; in experiment [2] it was 1.16 µM.
Consider `NC(=O)c1csc(-c2nc3c([nH]2)C(=O)C=CC3=O)n1`, for which the values for the IC50 in experiment [1] and in experiment [2] were 3.03 µM and 7.7 µM, respectively.
In the same order, the values of `COC1=CC(=O)c2[nH]c(-c3nc(C(N)=O)cs3)nc2C1=O` are 15.9 µM and 1.32 µM.
In the same order, the values of `COc1cccc2c1C(=O)c1c(O)c3c(c(O)c1C2=O)C[C@@](O)(C(=O)CO)C[C@@H]3O[C@H]1C[C@H](N)[C@H](O)[C@H](C)O1` [DOXORUBICIN] are 0.75 µM and 0.62 µM.
As to `COC1=CC(=O)c2[nH]c(-c3nc(C(=O)O)cs3)nc2C1=O`, the IC50 in experiment [1] is 12.1 µM; in experiment [2], 15.1 µM.
The matching figures for `CCOC(=O)c1csc(-c2nc3c([nH]2)C(=O)C=CC3=O)n1`: 1.42 µM and 16.3 µM.
The matching figures for `O=C(O)c1csc(-c2nc3c([nH]2)C(=O)C=CC3=O)n1`: 8.76 µM and 18 µM.

The values are drawn from ChEMBL document CHEMBL1134150, “Synthesis and antiproliferative activity of some thiazolylbenzimidazole-4,7-diones” (Bioorg Med Chem Lett, 2001).
